Results reported in the supplement of paper PMC11451515.

System: P12-Ichikawa
Assay: cell viability relative to DMSO control; higher = less cytotoxic
Conditions: 48 h
Summary of the method: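 NOMO1, SEM and P12-Ichikawa leukemia cells spent at least four passages adapting to each medium before use. They were seeded at 500 cells/well (NOMO1, SEM) or 1000 cells/well (P12-Ichikawa) in 5 μl in 1536-well plates and pin-dosed with library compounds in DMSO at 11 threefold steps from 47 μM down to 0.79 nM. After 48 h at 37°C, CellTiter-Glo One luminescence was read. Viability is reported as a percentage of the DMSO wells on each plate, with cell-free wells as background.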

[1] = HPLM + 10% dialyzed FBS, 0.000781 µM
[2] = HPLM + 10% dialyzed FBS, 0.00234 µM
[3] = HPLM + 10% dialyzed FBS, 0.00702 µM
[4] = HPLM + 10% dialyzed FBS, 0.0211 µM
[5] = HPLM + 10% dialyzed FBS, 0.0632 µM
[6] = HPLM + 10% dialyzed FBS, 0.19 µM
[7] = HPLM + 10% dialyzed FBS, 0.569 µM
[8] = HPLM + 10% dialyzed FBS, 1.71 µM
[9] = HPLM + 10% dialyzed FBS, 5.12 µM
[10] = HPLM + 10% dialyzed FBS, 15.4 µM
[11] = HPLM + 10% dialyzed FBS, 46.1 µM
[12] = RPMI 5 mM glucose + 10% FBS, 0.000781 µM
[13] = RPMI 5 mM glucose + 10% FBS, 0.00234 µM
[14] = RPMI 5 mM glucose + 10% FBS, 0.00702 µM
[15] = RPMI 5 mM glucose + 10% FBS, 0.0211 µM
[16] = RPMI 5 mM glucose + 10% FBS, 0.0632 µM
[17] = RPMI 5 mM glucose + 10% FBS, 0.19 µM
[18] = RPMI 5 mM glucose + 10% FBS, 0.569 µM
[19] = RPMI 5 mM glucose + 10% FBS, 1.71 µM
[20] = RPMI 5 mM glucose + 10% FBS, 5.12 µM
[21] = RPMI 5 mM glucose + 10% FBS, 15.4 µM
[22] = RPMI 5 mM glucose + 10% FBS, 46.1 µM
[23] = RPMI 5 mM glucose + 10% dialyzed FBS, 0.000781 µM
[24] = RPMI 5 mM glucose + 10% dialyzed FBS, 0.00234 µM
[25] = RPMI 5 mM glucose + 10% dialyzed FBS, 0.00702 µM
[26] = RPMI 5 mM glucose + 10% dialyzed FBS, 0.0211 µM
[27] = RPMI 5 mM glucose + 10% dialyzed FBS, 0.0632 µM
[28] = RPMI 5 mM glucose + 10% dialyzed FBS, 0.19 µM
[29] = RPMI 5 mM glucose + 10% dialyzed FBS, 0.569 µM
[30] = RPMI 5 mM glucose + 10% dialyzed FBS, 1.71 µM
[31] = RPMI 5 mM glucose + 10% dialyzed FBS, 5.12 µM
[32] = RPMI 5 mM glucose + 10% dialyzed FBS, 15.4 µM
[33] = RPMI 5 mM glucose + 10% dialyzed FBS, 46.1 µM

SMILES	cell viability [1] [%]	cell viability [2] [%]	cell viability [3] [%]	cell viability [4] [%]	cell viability [5] [%]	cell viability [6] [%]	cell viability [7] [%]	cell viability [8] [%]	cell viability [9] [%]	cell viability [10] [%]	cell viability [11] [%]	cell viability [12] [%]	cell viability [13] [%]	cell viability [14] [%]	cell viability [15] [%]	cell viability [16] [%]	cell viability [17] [%]	cell viability [18] [%]	cell viability [19] [%]	cell viability [20] [%]	cell viability [21] [%]	cell viability [22] [%]	cell viability [23] [%]	cell viability [24] [%]	cell viability [25] [%]	cell viability [26] [%]	cell viability [27] [%]	cell viability [28] [%]	cell viability [29] [%]	cell viability [30] [%]	cell viability [31] [%]	cell viability [32] [%]	cell viability [33] [%]
Cn1cnc(-c2cc3nccc(Oc4ccc(NC(=S)NC(=O)Cc5ccccc5)cc4F)c3s2)c1	79	85.6	77.3	92.7	91.4	91.5	94.1	87.8	83.9	71.8	15.2	80.9	82.9	80.5	87.1	84.7	85.2	87.1	92.6	82.7	58.5	7.61	80.4	87.6	83.1	91.8	96.9	93.7	85.6	95.9	82.6	66.3	15.4
CN1CCN(Cc2ccc(NC(=O)Nc3ccc(Oc4cc(NC(=O)C5CC5)ncn4)cc3)cc2C(F)(F)F)CC1	100	108	103	113	114	113	46.7	9.49	10.2	8.59	0.0522	105	110	117	121	122	132	44.7	9.59	8.79	6.05	0.799	92.4	113	111	121	122	123	35.4	12.8	11.6	11.8	0.55
COC1=CC(=CC=C1)C2=CC=C(NC(=O)/C3=C(/CCC3)C(O)=O)C(=C2)F	111	113	116	110	110	113	113	106	100	80.1	57.6	116	116	118	113	109	111	105	105	96.6	79.6	51.7	109	120	114	105	110	110	113	106	92.2	69.6	37.4
O=C(Nc1ccc([N+](=O)[O-])cc1Cl)c1cc(Cl)ccc1O	95.3	105	98.6	102	107	106	105	88	46	12.9	24.7	92.2	90.9	96	92.9	104	106	102	71.6	33	17	26.3	81.5	92.7	81.4	91.9	87.2	88	94.2	69	31.4	32.1	5.22
CNC(=O)c1ccc(N2C(=S)N(c3ccc(C#N)c(C(F)(F)F)c3)C(=O)C2(C)C)cc1F	98.8	106	79.6	110	123	117	115	124	114	108	107	107	119	72	109	123	117	122	120	124	116	98.5	102	113	80.4	108	120	117	119	122	122	112	91.1
NCCCCCC(=O)O	107	109	106	90.4	117	105	114	104	102	95.3	101	102	101	98.6	85.2	109	105	110	101	92.2	105	88.4	98.2	112	108	84.1	108	97.2	105	94.7	96	88.4	92.4
O=C(C[C@@H]1C/C=C\CCC(=O)O[C@H](c2ccccc2)CNC1=O)NCc1ccc(Cl)cc1	99.1	110	79.7	117	126	122	116	119	123	116	117	95.1	117	70	112	115	118	128	128	115	119	123	102	115	79.3	120	120	120	123	119	114	120	113
